From patent publication US11072599B2, “Pyrazole compounds and uses thereof” (Yissum Research Development Company of the Hebrew …, priority 2017, dated 2021)

Tested on: RKO colorectal cells
Assay: Dose-response compound screen in RKO cells (Western blot, indicators of CKIα inhibition)
Type: cell-based
Settings: 16 hours at 37° C., 0.167-1.5 μM or 0.11-1 μM, ImageJ, 1 = mock (DMSO)-treated cells
Experimental: RKO cells were incubated for 16 hours at 37° C. with indicated concentrations of the compounds, or with the vehicle (DMSO) alone (−) and analyzed by Western Blot. Shown are Western Blot signals of β-catenin and p53 stabilization and phosphorylation of H2AX (γH2AX), a marker of DNA damage.
RKO colorectal cells were incubated with serial dilutions of each of the compounds (at a concentration range of 0.167-1.5 μM or 0.11-1 μM in DMSO) for 16 hours at 37° C. Cells were washed with PBS and cell pellets were incubated with ice cold protein lysis buffer containing protease inhibitor cocktail ( 1/200; Calbiochem) and phosphatase inhibitors (20 mM p-nitrophenyl phosphate (PNPP), 20 mM β-glycerophosphate and 300 nM okadaic acid). Western blot (WB) analysis was performed by means of standard techniques. Blots were incubated with antibodies detecting β-catenin ( 1/2,500; BD Transduction), p53 (DO-1&1801 hybridoma mix; dilution of 1:20 of supernatants from each), CKIα (C-19; 1/1,000; Santa Cruz Biotechnology) and phospho-histone H2AX (S139; 1/1,000; Millipore). Secondary antibodies were HRP-linked goat anti-mouse, goat anti-rabbit and rabbit anti-goat antibodies (all 1/10,000; Jackson). Blots were developed using ECL (GE Healthcare). Signal intensities corresponding to β-catenin and p53 stabilization and phosphorylation of H2AX (γH2AX—a marker of DNA damage)-indicators of CKIα inhibition (Elyada et al., Nature […]), were analyzed by the ImageJ software. Relative signal intensities are depicted in Table 1 (see also in FIG. 1), where values of 1 correspond to signals of mock (DMSO)-treated cells.

Compound	H2AX phosphorylation (γH2AX, relative signal intensity)	p53 stabilization (relative signal intensity)	β-Catenin stabilization (relative signal intensity)
Cc1ccnn1[C@H]1CC[C@H](Nc2ncc(Cl)c(-c3cnn(C)c3CC3CC3)n2)CC1 [A102]	1	1	4
Cn1ncc(-c2cccc(N[C@H]3CC[C@H](N)CC3)n2)c1CC1CC1 [A105, (1r,4r)-N1-(6-(5-(cyclopropylmethyl)-1-methyl-1H-pyrazol-4-yl)pyridin-2-yl)cyclohexane-1,4-diamine]	1	2	5
Cn1ncc(-c2cc(N[C@H]3CC[C@H](N)CC3)ncn2)c1CC1CC1 [A106, (1r,4r)-N1-(6-(5-(cyclopropylmethyl)-1-methyl-1H-pyrazol-4-yl)pyrimidin-4-yl)cyclohexane-1,4-diamine]	1	1	9
Cn1ncc(-c2cc(O)nc(N[C@H]3CC[C@H](N)CC3)n2)c1CC1CC1 [A108, 2-(((1r,4r)-4-aminocyclohexyl)amino)-6-(5-(cyclopropylmethyl)-1-methyl-1H-pyrazol-4-yl)pyrimidin-4-ol]	1	1	9
Cn1ncc(-c2cc(N[C@H]3CC[C@H](N)CC3)ncc2Cl)c1CC1CC1 [A104, (1r,4r)-N1-(5-chloro-4-(5-(cyclopropylmethyl)-1-methyl-1H-pyrazol-4-yl)pyridin-2-yl)cyclohexane-1,4-diamine]	20	20	9
Cn1ncc(-c2cc(N[C@H]3CC[C@H](N)CC3)nc(N)n2)c1CC1CC1 [A107, N4-((1r,4r)-4-aminocyclohexyl)-6-(5-(cyclopropylmethyl)-1-methyl-1H-pyrazol-4-yl)pyrimidine-2,4-diamine]	1	2	4
